These results are taken from patent US20230049231A1 (priority 2019, published 2023).

Each structure is given as a SMILES string.

One experiment addresses T1, Kv1.3 potassium channel (Homo sapiens, UniProt P22001).
T1 construct: expressed in transfected cells
In words: Kv1.3 potassium channel blocker activity, automated whole-cell patch clamp (Patchliner). The experiment is classed as cell-based. Summed up: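 IC50 came from Hill-equation fits of peak and AUC currents from the final pulse at each concentration, normalized to compound-free control. Compounds applied consecutively at 30 nM to 100 μM (up to 0.3% DMSO) to Kv1.3-expressing CHO-K1 cells, P/4 leak subtraction. Pulses were +40 mV, 100 ms, from −90 mV holding, at 0.1 Hz on Patchliner.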

For the next experiment, the target named is T2, hERG channel (Homo sapiens, UniProt Q12809).
T2 construct: expressed in transfected cells
Briefly: hERG electrophysiology, automated whole-cell patch clamp (Patchliner). The experiment is classed as cell-based. Summed up:
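Automated whole-cell patch clamp on CHO-K1 cells stably expressing hERG; 30 nM–100 μM applied cumulatively to the same cell, ≤0.3% DMSO. Pulses: −80 mV holding, +20 mV for 300 ms, −50 mV for 300 ms tail, 0.3 Hz, 70 per concentration. Last-pulse AUC and peak, normalized to control, were fitted to a Hill equation for IC50.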
On the technique in general: hERG is a cardiac potassium channel; its block is linked to QT prolongation.

Where [1] appears, read: Kv1.3 potassium channel, whole-cell patch clamp.
Setting [2] is: hERG channel, whole-cell patch clamp.
The mark [3] stands for this setting: CHO-K1 cells stably expressing Kv1.3, 100 ms pulses from -90 mV to +40 mV, 0.1 Hz.
Where [4] appears, read: CHO-K1 cells stably expressing hERG, +20 mV 300 ms, -50 mV 300 ms tail current, 0.3 Hz.

T2 sequence (Q12809 whole entry): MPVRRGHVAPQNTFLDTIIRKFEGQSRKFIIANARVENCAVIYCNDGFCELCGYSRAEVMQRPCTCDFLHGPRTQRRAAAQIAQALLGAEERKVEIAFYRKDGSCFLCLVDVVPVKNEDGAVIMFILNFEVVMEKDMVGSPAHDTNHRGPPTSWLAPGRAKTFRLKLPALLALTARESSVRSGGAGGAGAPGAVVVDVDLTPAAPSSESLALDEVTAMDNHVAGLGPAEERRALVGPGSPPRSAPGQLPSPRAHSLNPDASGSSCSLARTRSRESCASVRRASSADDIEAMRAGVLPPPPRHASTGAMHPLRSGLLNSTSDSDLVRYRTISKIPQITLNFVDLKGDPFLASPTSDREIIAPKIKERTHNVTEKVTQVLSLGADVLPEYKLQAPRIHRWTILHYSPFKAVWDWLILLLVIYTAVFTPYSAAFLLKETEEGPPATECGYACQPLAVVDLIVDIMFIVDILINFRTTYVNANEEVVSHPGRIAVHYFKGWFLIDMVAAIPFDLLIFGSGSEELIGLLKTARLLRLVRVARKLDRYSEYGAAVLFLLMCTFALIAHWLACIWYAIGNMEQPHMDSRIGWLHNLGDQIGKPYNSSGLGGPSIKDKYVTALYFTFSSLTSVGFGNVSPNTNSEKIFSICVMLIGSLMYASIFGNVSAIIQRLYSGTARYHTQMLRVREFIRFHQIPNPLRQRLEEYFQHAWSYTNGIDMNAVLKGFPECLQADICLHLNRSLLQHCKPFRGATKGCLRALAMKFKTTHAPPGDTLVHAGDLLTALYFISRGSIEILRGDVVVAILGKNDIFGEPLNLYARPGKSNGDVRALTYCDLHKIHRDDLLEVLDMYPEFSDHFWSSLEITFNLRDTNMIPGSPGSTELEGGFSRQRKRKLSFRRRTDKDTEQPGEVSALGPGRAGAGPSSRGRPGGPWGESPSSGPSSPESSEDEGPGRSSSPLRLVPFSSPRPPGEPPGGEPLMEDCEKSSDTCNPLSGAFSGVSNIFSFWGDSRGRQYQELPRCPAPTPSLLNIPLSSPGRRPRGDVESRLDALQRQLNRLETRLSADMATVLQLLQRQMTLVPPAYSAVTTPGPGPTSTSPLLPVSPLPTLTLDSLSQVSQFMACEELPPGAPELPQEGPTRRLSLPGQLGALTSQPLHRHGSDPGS
T1 sequence (P22001 whole entry): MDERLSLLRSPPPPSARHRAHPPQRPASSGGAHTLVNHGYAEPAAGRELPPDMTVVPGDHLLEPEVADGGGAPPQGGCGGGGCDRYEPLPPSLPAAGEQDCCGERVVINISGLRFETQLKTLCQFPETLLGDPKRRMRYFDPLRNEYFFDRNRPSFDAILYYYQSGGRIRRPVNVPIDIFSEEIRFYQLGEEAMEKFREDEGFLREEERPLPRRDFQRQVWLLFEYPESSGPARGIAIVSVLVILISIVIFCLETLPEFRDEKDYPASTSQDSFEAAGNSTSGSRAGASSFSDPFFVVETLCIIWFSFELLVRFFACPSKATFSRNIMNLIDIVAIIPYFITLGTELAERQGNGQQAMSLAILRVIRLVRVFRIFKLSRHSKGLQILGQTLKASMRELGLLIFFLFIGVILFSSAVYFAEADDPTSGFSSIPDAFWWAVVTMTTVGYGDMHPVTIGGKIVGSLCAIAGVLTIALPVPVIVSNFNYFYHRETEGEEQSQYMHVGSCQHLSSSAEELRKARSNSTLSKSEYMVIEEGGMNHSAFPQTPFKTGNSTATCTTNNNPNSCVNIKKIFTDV

Broadly, the IC50 is the midpoint of a concentration-inhibition curve. A lower IC50 goes with higher potency. On to `O=C1C[C@@H](CN2CC(O)C2)C[C@@H]2C[C@H](c3c(O)ccc(Cl)c3Cl)CN12` (single isomer, unassigned) [Compound 242], for which the IC50 against Kv1.3 potassium channel (setting [1]) was below 1 µM; on hERG channel (setting [2]) it was above 30 µM.

Regarding `O=C1CN(C[C@@H]2COCCN2)C[C@@H]2C[C@H](c3c(O)ccc(Cl)c3Cl)CN12` [Compound 144, (7R,8aS)-7-(2,3-dichloro-6-hydroxyphenyl)-2-[(3R)-morpholin-3-ylmethyl]-hexahydropyrrolo [1,2-a]pyrazin-4-one], the IC50 is below 1 µM against Kv1.3 potassium channel (setting [1]) and above 30 µM at hERG channel (setting [2]).

As to `CC[C@H](O)C(=O)N1CC(=O)N2CC[C@@H](c3c(O)ccc(Cl)c3Cl)C[C@H]2C1` [Compound 9, (8R,9aS)-8-(2,3-dichloro-6-hydroxyphenyl)-2-[(2S)-2-hydroxybutanoyl]-hexahydro-1H-pyrido[1,2-a]pyrazin-4-one], the half-inhibitory concentration (IC50) was below 1 µM against Kv1.3 potassium channel (setting [3]) and above 30 µM against hERG channel (setting [4]).

On to `O=C(CCO)N1CC(=O)N2C[C@@H](c3c(O)ccc(Cl)c3Cl)C[C@H]2C1` [Compound 17, (7R,8aS)-7-(2,3-dichloro-6-hydroxyphenyl)-2-(3-hydroxypropanoyl)hexa-hydropyrrolo[1,2-a]pyrazin-4(1H)-one], for which the IC50 at Kv1.3 potassium channel (setting [3]) was below 1 µM; on hERG channel (setting [4]), above 30 µM.

As to `O=C1O[C@@H](CN2CCOCC2)[C@@H]2C[C@H](c3c(O)ccc(Cl)c3Cl)CN12` (single isomer, unassigned) [Compound 284], the half-inhibitory concentration (IC50) was below 1 µM against Kv1.3 potassium channel (setting [1]) and above 30 µM on hERG channel (setting [2]).

`O=C(CO)N1CC(=O)N2CC[C@@H](c3c(O)ccc(Cl)c3Cl)C[C@H]2C1` [Compound 63, (8R,9aS)-8-(2,3-dichloro-6-hydroxyphenyl)-2-(2-hydroxyacetyl)-hexahydro-1H-pyrido[1,2-a]pyrazin-4-one]: the IC50 is below 1 µM at Kv1.3 potassium channel (setting [1]) and below 30 µM at hERG channel (setting [2]).

On to `O=C1CN(C2CN(CCO)C2)C[C@@H]2C[C@H](c3c(O)ccc(Cl)c3Cl)CN12` [Compound 134, (7R,8aS)-7-(2,3-dichloro-6-hydroxyphenyl)-2-[1-(2-hydroxyethyl)azetidin-3-yl]-hexahydropyrrolo [1,2-a]pyrazin-4-one], for which the concentration for half-maximal inhibition (IC50) on Kv1.3 potassium channel (setting [1]) was below 1 µM; on hERG channel (setting [2]), above 30 µM.

Regarding `CN[C@H]1CC(=O)N2C[C@@H](c3c(O)ccc(Cl)c3Cl)C[C@H]2C1` (single isomer, unassigned) [Compound 199], the 50% inhibitory concentration (IC50) at Kv1.3 potassium channel (setting [1]) was below 1 µM; against hERG channel (setting [2]), above 30 µM.

As for `C[C@@H](CO)C(=O)N1CC(=O)N2CC[C@@H](c3c(O)ccc(Cl)c3Cl)C[C@H]2C1` [Compound 45, (8R,9aS)-8-(2,3-dichloro-6-hydroxyphenyl)-2-((S)-3-hydroxy-2-methylpropanoyl)octahydro-4H-pyrido[1,2-a]pyrazin-4-one], the IC50 at Kv1.3 potassium channel (setting [3]) is below 1 µM; on hERG channel (setting [4]) it was above 30 µM.

Turning to `O=C1C[C@@H](c2cn[nH]c2)C[C@@H]2C[C@H](c3c(O)ccc(Cl)c3Cl)CN12` (single isomer, unassigned) [Compound 215], the IC50 at Kv1.3 potassium channel (setting [1]) was below 1 µM; against hERG channel (setting [2]), above 30 µM.

As for `O=C1O[C@H](CN2CCNCC2)[C@@H]2C[C@H](c3c(O)ccc(Cl)c3Cl)CN12` (single isomer, unassigned) [Compound 280], the figures for the IC50 against Kv1.3 potassium channel (setting [1]) and against hERG channel (setting [2]) were below 1 µM and above 30 µM, respectively.

In the case of `O=C(CO)NCC1OC[C@@H]2C[C@H](c3c(O)ccc(Cl)c3Cl)CCN2C1=O` (stereo partly drawn) [Compound 185, N-[[(8R,9aS)-8-(2,3-dichloro-6-hydroxyphenyl)-4-oxo-hexahydro-1H-pyrido[2,1-c][1,4]oxazin-3-yl]methyl]-2-hydroxyacetamide], the IC50 on Kv1.3 potassium channel (setting [1]) was below 1 µM; against hERG channel (setting [2]), above 30 µM.

In the case of `CN(C)[C@H]1CC(=O)N2C[C@@H](c3c(O)ccc(Cl)c3Cl)C[C@H]2C1` (single isomer, unassigned) [Compound 201], the figures for the IC50 against Kv1.3 potassium channel (setting [1]) and on hERG channel (setting [2]) were below 1 µM and below 10 µM, respectively.

Turning to `O=C1CC(N2CCNCC2)C[C@@H]2C[C@H](c3c(O)ccc(Cl)c3Cl)CN12` (stereo in doubt) [Compound 208, (2R,7R,8aS)-2-(2,3-dichloro-6-hydroxyphenyl)-7-(piperazin-1-yl)hexahydroindolizin-5(1H)-one], the results for the IC50 on Kv1.3 potassium channel (setting [1]) and on hERG channel (setting [2]) were below 1 µM and below 10 µM, respectively.

As to `O=C1CN(C[C@H]2COCCN2)C[C@@H]2C[C@H](c3c(O)ccc(Cl)c3Cl)CN12` [Compound 145, (7R,8aS)-7-(2,3-dichloro-6-hydroxyphenyl)-2-[(3S)-morpholin-3-ylmethyl]-hexahydropyrrolo [1,2-a]pyrazin-4-one], the IC50 on Kv1.3 potassium channel (setting [1]) is below 1 µM; at hERG channel (setting [2]), below 30 µM.

With `O=C1C[C@@H](N2CC(=O)N3C[C@@H](c4c(O)ccc(Cl)c4Cl)C[C@H]3C2)CN1` (single isomer, unassigned; isomer 1) [Compound 160], the IC50 is below 1 µM against Kv1.3 potassium channel (setting [1]) and above 30 µM on hERG channel (setting [2]).

As for `CNC(=O)CC1OC[C@@H]2C[C@H](c3c(O)ccc(Cl)c3Cl)CCN2C1=O` (stereo partly drawn) [Compound 188, 2-[(8R,9aS)-8-(2,3-dichloro-6-hydroxyphenyl)-4-oxo-hexahydro-1H-pyrido[2,1-c] [1,4]oxazin-3-yl]-N-methylacetamide], the IC50 against Kv1.3 potassium channel (setting [1]) was below 1 µM; at hERG channel (setting [2]), above 30 µM.

In the case of `NCC1CC(=O)N2C[C@@H](c3c(O)ccc(Cl)c3Cl)C[C@H]2C1` (stereo partly drawn) [Compound 217, (2R,8aR)-7-(aminomethyl)-2-(2,3-dichloro-6-hydroxyphenyl)-hexahydro-1H-indolizin-5-one], the figures for the IC50 against Kv1.3 potassium channel (setting [1]) and on hERG channel (setting [2]) were below 1 µM and above 30 µM, respectively.

As for `C[C@@H](O)C(=O)N1CC(=O)N2CC[C@@H](c3c(O)ccc(Cl)c3Cl)C[C@H]2C1` [Compound 16, (8R,9aS)-8-(2,3-dichloro-6-hydroxyphenyl)-2-[(2R)-2-hydroxypropanoyl]-hexahydro-1H-pyrido[1,2-a]pyrazin-4-one], the 50% inhibitory concentration (IC50) against Kv1.3 potassium channel (setting [3]) was below 1 µM; against hERG channel (setting [4]), above 30 µM.

With `CN[C@@H]1CC(=O)N2C[C@@H](c3c(O)ccc(Cl)c3Cl)C[C@H]2C1` (single isomer, unassigned) [Compound 198], the half-inhibitory concentration (IC50) at Kv1.3 potassium channel (setting [1]) is below 1 µM; against hERG channel (setting [2]), above 30 µM.

Consider `O=C(C1CNC1)N1CC(=O)N2CC[C@@H](c3c(O)ccc(Cl)c3Cl)C[C@H]2C1` (relative stereo) [Compound 32, (8S,9aR)-rel-2-(azetidine-3-carbonyl)-8-(2,3-dichloro-6-hydroxyphenyl)-hexahydro-1H-pyrido[1,2-a]pyrazin-4-one], for which the IC50 is below 1 µM at Kv1.3 potassium channel (setting [3]) and above 30 µM at hERG channel (setting [4]).

On to `CC[C@@H](O)CC(=O)N1CC(=O)N2C[C@@H](c3c(O)ccc(Cl)c3Cl)C[C@H]2C1` [Compound 69, (7R,8aS)-7-(2,3-dichloro-6-hydroxyphenyl)-2-[(3R)-3-hydroxypentanoyl]-hexahydropyrrolo [1,2-a]pyrazin-4-one], for which the IC50 is below 1 µM against Kv1.3 potassium channel (setting [1]) and above 30 µM at hERG channel (setting [2]).

`O=C1O[C@@H]([C@@H](O)CO)[C@@H]2C[C@H](c3c(O)ccc(Cl)c3Cl)CN12` (single isomer, unassigned) [Compound 260]: the 50% inhibitory concentration (IC50) at Kv1.3 potassium channel (setting [1]) is below 1 µM; against hERG channel (setting [2]), above 30 µM.

`NC[C@@H]1OC(=O)N2C[C@@H](c3c(O)ccc(Cl)c3Cl)C[C@@H]12` (single isomer, unassigned) [Compound 272]: the results for the IC50 on Kv1.3 potassium channel (setting [1]) and against hERG channel (setting [2]) were below 1 µM and below 30 µM, respectively.

Turning to `O=C1CN(C2CCNCC2)C[C@@H]2C[C@H](c3c(O)ccc(Cl)c3Cl)CN12` [Compound 141, (7R,8aS)-7-(2,3-dichloro-6-hydroxyphenyl)-2-(piperidin-4-yl)-hexahydropyrrolo [1,2-a]pyrazin-4-one], the half-maximal inhibitory concentration (IC50) against Kv1.3 potassium channel (setting [1]) is below 1 µM; on hERG channel (setting [2]) it was above 30 µM.

Consider `CN(CCO)[C@H]1CC(=O)N2C[C@@H](c3c(O)ccc(Cl)c3Cl)C[C@H]2C1` (single isomer, unassigned) [Compound 205], for which the IC50 is below 1 µM on Kv1.3 potassium channel (setting [1]) and above 30 µM at hERG channel (setting [2]).

Regarding `O=C1CN(c2ncc[nH]2)C[C@@H]2C[C@H](c3c(O)ccc(Cl)c3Cl)CN12` [Compound 176, (7R,8aS)-7-(2,3-dichloro-6-hydroxyphenyl)-2-(1H-imidazol-2-yl)-hexahydropyrrolo[1,2-a]pyrazin-4-one], the half-inhibitory concentration (IC50) at Kv1.3 potassium channel (setting [1]) was below 1 µM; against hERG channel (setting [2]), below 30 µM.

Regarding `CNC[C@@H]1CC(=O)N2C[C@@H](c3c(O)ccc(Cl)c3Cl)C[C@H]2C1` (single isomer, unassigned) [Compound 239], the IC50 was below 1 µM on Kv1.3 potassium channel (setting [1]) and above 30 µM against hERG channel (setting [2]).

In the case of `O=C1CN(c2ccnc(CO)n2)C[C@@H]2C[C@H](c3c(O)ccc(Cl)c3Cl)CN12` [Compound 169, (7R,8aS)-7-(2,3-dichloro-6-hydroxyphenyl)-2-[2-(hydroxymethyl)pyrimidin-4-yl]-hexahydropyrrolo[1,2-a]pyrazin-4-one], the results for the IC50 against Kv1.3 potassium channel (setting [1]) and against hERG channel (setting [2]) were below 1 µM and above 30 µM, respectively.

Turning to `CC1(CN2CC(=O)N3C[C@@H](c4c(O)ccc(Cl)c4Cl)C[C@H]3C2)CNC1` [Compound 167, (7R,8aS)-7-(2,3-dichloro-6-hydroxyphenyl)-2-[(3-methylazetidin-3-yl)methyl]-hexahydropyrrolo[1,2-a]pyrazin-4-one], the results for the IC50 against Kv1.3 potassium channel (setting [1]) and against hERG channel (setting [2]) were below 1 µM and above 30 µM, respectively.

Consider `CCO[C@H](CO)C(=O)N1CC(=O)N2C[C@@H](c3c(O)ccc(Cl)c3Cl)C[C@H]2C1` [Compound 66, (7R,8aS)-7-(2,3-dichloro-6-hydroxyphenyl)-2-[(2R)-2-ethoxy-3-hydroxypropanoyl]-hexahydropyrrolo[1,2-a]pyrazin-4-one], for which the figures for the half-maximal inhibitory concentration (IC50) against Kv1.3 potassium channel (setting [1]) and against hERG channel (setting [2]) were below 1 µM and above 30 µM, respectively.
